Values joined by “and” are separate entries in the source; they are usually repeats but may differ in a detail not shown here. Equal entries are not always repeated.
Experiments:
[1] = 12-month toxicity study, whole blood exposure; format: in vivo, cynomolgus monkeys; conditions: Days 1 and 28; 30, 100 and 300 mg/kg/day oral gavage
Procedure: All the animals were healthy and within normal weights for their age at the start of the study. The dose levels were 0, 30/5, 100/30, and 300 mg/kg/day and administered at a dose volume of 3 mL per dose. The control group received the vehicle in the same manner as the treated groups. Just prior to administration, the test article for each animal was added to the syringe containing the vehicle for each animal and vortexed until thoroughly mixed to achieved the desired concentrations of 30, 100, and 300 mg/mL through Day 42 (Week 6). During administration, the syringe containing the test article preparation for each animal was pushed through the gavage tube. The 1 mL vehicle rinse was then added to the dosing syringe and administered. After administration of both volumes, a 5 mL flush of the vehicle was used to rinse the gavage tube and ensure that the entire amount of the test article was administered to the animal. […] Therefore, dose levels were adjusted so that different blood exposures could be examined. During Week 7 dosing for all animals was stopped for four days (Days 43 to 46). The initial dose levels of 30 and 100 mg/kg/day were reduced to 5 and 30 mg/kg/day, respectively, and dosing was resumed on Day 47 through Day 353. Individual doses were based on the most recent body weights.

[2] = Phase 2b/3 trial, weight over 52 weeks; format: in vivo, human
Procedure: Weight measurements were included in the study as a basic clinical parameter. […] Screening estimated GFR was calculated as the mean of two estimated GFR results (differing no more than 25%) collected at least 5 days apart within a 3-week period. […] Exclusion criteria included type 1 diabetes, non-diabetic kidney disease, hemoglobin A1c>10%, QTc […] interval >450 milliseconds, evidence of hepatic dysfunction, and recent cardiovascular disease. […] Study drug was taken orally once daily in the morning one hour prior to food intake. Dose titration occurred as follows: (1) placebo; (2) 25 mg; (3) 25 mg, increased to 75 mg after 4 weeks; and (4) 25 mg, increased to 75 mg after 4 weeks, further increased to 150 mg after an additional 4 weeks. Randomization was stratified by CKD stage (3b versus 4), urinary albumin to creatinine ratio (ACR; ≤ versus >300 mg/g), and glucose control (hemoglobin A1c< versus ≥7%). An independent Data Safety Monitoring Board monitored patient safety. […] The double-blinded structure of the study was maintained throughout the 52-week period. […] Treatment was discontinued in all groups at week 52 (including the placebo group), and final clinical and laboratory measurements were taken at week 56.

Nrf2 = Nrf2 activity in blood cells in clinical trials; format: in vivo, human; conditions: at therapeutic doses
From the text: One AIM, bardoxolone methyl (BARD), is in advanced clinical trials for the treatment of chronic kidney disease.

[3] = Phase 2 clinical trial, patient body weight and tolerability; format: in vivo, human
Procedure: See Example 1, below. […] In this study, the protocol stipulated that patient weights were to be taken at baseline (D−1=1 day before initiation of dosing), Day 28, and Day 56. […] In this study, the protocol stipulated that patient weights were to be taken at baseline (D−1=1 day before initiation of dosing), Day 28, and Day 56. […] Prior to initiation of treatment, basic clinical observations (e.g., weight, blood pressure, height) were recorded along with baseline values for serum creatinine, blood urea nitrogen, serum phosphorus, serum uric acid, angiotensin II, fasting glucose, hemoglobin A1c, circulating endothelial cells (CECs), and iNOS-positive CECs.

[4] = 75 mg, Week 56 (treatment discontinued at week 52)
[5] = by week 52, patients treated with bardoxolone methyl

COC(=O)[C@]12CCC(C)(C)C[C@H]1[C@H]1C(=O)C=C3[C@@]4(C)C=C(C#N)C(=O)C(C)(C)[C@@H]4CC[C@@]3(C)[C@]1(C)CC2 [bardoxolone methyl]
exposure in whole blood samples [1]: no significant differences in exposure across the three dose levels
Change in weight from baseline to Week 52: Decrease >5 kg, patients ([2]; 25 mg, N = 48): 35 (73) n (%)
Change in weight from baseline to Week 52: Decrease >10 kg, patients ([2]; 25 mg, N = 48): 16 (33) n (%)
Change in weight from baseline to Week 52: Decrease >15 kg, patients ([2]; 25 mg, N = 48): 9 (19) n (%)
Change in weight from baseline to Week 52: Decrease within 5 kg, patients ([2]; 25 mg, N = 48): 8 (17) n (%)
Change in weight from baseline to Week 52: Increase >5 kg, patients ([2]; 25 mg, N = 48): 0 n (%)
Change in weight from baseline to Week 52: Increase within 5 kg, patients ([2]; 25 mg, N = 48): 5 (10) n (%)
Change from baseline weight, Mean ([2]; 25 mg, Week 4): -1.4 kg
Change from baseline weight, Mean ([2]; 25 mg, Week 8): -2.7 kg
Change from baseline weight, Mean ([2]; 25 mg, Week 12): -3.9 kg
Change from baseline weight, Mean ([2]; 25 mg, Week 16): -4.3 kg
Change from baseline weight, Mean ([2]; 25 mg, Week 20): -5.0 kg
Change from baseline weight, Mean ([2]; 25 mg, Week 24): -5.9 kg
Change from baseline weight, Mean ([2]; 25 mg, Week 28): -6.3 kg
Change from baseline weight, Mean ([2]; 25 mg, Week 32): -6.7 kg
Change from baseline weight, Mean ([2]; 25 mg, Week 36): -7.4 kg
Change from baseline weight, Mean ([2]; 25 mg, Week 40): -7.9 kg
Change from baseline weight, Mean ([2]; 25 mg, Week 44): -8.2 kg
Change from baseline weight, Mean ([2]; 25 mg, Week 48): -8.8 kg
Change from baseline weight, Mean ([2]; 25 mg, Week 52): -9.3 kg
Change from baseline weight, Mean ([2]; 25 mg, Week 56 (treatment discontinued at week 52)): -7.7 kg
Change in weight from baseline to Week 52: Decrease >5 kg, patients ([2]; 75 mg, N = 48): 32 (67) n (%)
Change in weight from baseline to Week 52: Decrease >10 kg, patients ([2]; 75 mg, N = 48): 14 (29) n (%)
Change in weight from baseline to Week 52: Decrease >15 kg, patients ([2]; 75 mg, N = 48): 4 (8) n (%)
Change in weight from baseline to Week 52: Decrease within 5 kg, patients ([2]; 75 mg, N = 48): 12 (25) n (%)
Change in weight from baseline to Week 52: Increase >5 kg, patients ([2]; 75 mg, N = 48): 0 n (%)
Change in weight from baseline to Week 52: Increase within 5 kg, patients ([2]; 75 mg, N = 48): 4 (8) n (%)
Change from baseline weight, Mean ([2]; 75 mg, Week 4): -1.4 kg
Change from baseline weight, Mean ([2]; 75 mg, Week 8): -2.6 kg
Change from baseline weight, Mean ([2]; 75 mg, Week 12): -3.4 kg
Change from baseline weight, Mean ([2]; 75 mg, Week 16): -4.1 kg
Weight, Mean ([2]; 75 mg, Week 16): 91.7 kg
Change from baseline weight, Mean ([2]; 75 mg, Week 20): -4.4 kg
Weight, Mean ([2]; 75 mg, Week 20): 92.0 kg
Change from baseline weight, Mean ([2]; 75 mg, Week 24): -4.7 kg
Weight, Mean ([2]; 75 mg, Week 24): 91.7 kg
Change from baseline weight, Mean ([2]; 75 mg, Week 28): -5.1 kg
Weight, Mean ([2]; 75 mg, Week 28): 91.8 kg
Change from baseline weight, Mean ([2]; 75 mg, Week 32): -6.2 kg
Weight, Mean ([2]; 75 mg, Week 32): 91.6 kg
Change from baseline weight, Mean ([2]; 75 mg, Week 36): -6.1 kg
Weight, Mean ([2]; 75 mg, Week 36): 91.0 kg
Change from baseline weight, Mean ([2]; 75 mg, Week 40): -6.5 kg
Weight, Mean ([2]; 75 mg, Week 40): 90.6 kg
Change from baseline weight, Mean ([2]; 75 mg, Week 44): -6.9 kg
Weight, Mean ([2]; 75 mg, Week 44): 90.8 kg
Change from baseline weight, Mean ([2]; 75 mg, Week 48): -7.4 kg
Weight, Mean ([2]; 75 mg, Week 48): 90.4 kg
Change from baseline weight, Mean ([2]; 75 mg, Week 52): -7.7 kg
Weight, Mean ([2]; 75 mg, Week 52): 90.0 kg
Change from baseline weight, Mean [2, 4]: -7.6 kg
Weight, Mean [2, 4]: 90.7 kg
Change in weight from baseline to Week 52: Decrease >5 kg, patients ([2]; 150 mg, N = 45): 34 (76) n (%)
Change in weight from baseline to Week 52: Decrease >10 kg, patients ([2]; 150 mg, N = 45): 22 (49) n (%)
Change in weight from baseline to Week 52: Decrease >15 kg, patients ([2]; 150 mg, N = 45): 12 (27) n (%)
Change in weight from baseline to Week 52: Decrease within 5 kg, patients ([2]; 150 mg, N = 45): 8 (18) n (%)
Change in weight from baseline to Week 52: Increase >5 kg, patients ([2]; 150 mg, N = 45): 1 (2) n (%)
Change in weight from baseline to Week 52: Increase within 5 kg, patients ([2]; 150 mg, N = 45): 2 (4) n (%)
Change from baseline weight, Mean ([2]; 150 mg, Week 4): -1.3 kg
Change from baseline weight, Mean ([2]; 150 mg, Week 8): -2.1 kg
Change from baseline weight, Mean ([2]; 150 mg, Week 12): -3.3 kg
Change from baseline weight, Mean ([2]; 150 mg, Week 16): -3.9 kg
Change from baseline weight, Mean ([2]; 150 mg, Week 20): -5.0 kg
Change from baseline weight, Mean ([2]; 150 mg, Week 24): -5.8 kg
Change from baseline weight, Mean ([2]; 150 mg, Week 28): -6.7 kg
Change from baseline weight, Mean ([2]; 150 mg, Week 32): -7.2 kg
Change from baseline weight, Mean ([2]; 150 mg, Week 36): -8.1 kg
Change from baseline weight, Mean ([2]; 150 mg, Week 40): -8.7 kg
Change from baseline weight, Mean ([2]; 150 mg, Week 44): -9.2 kg
Change from baseline weight, Mean ([2]; 150 mg, Week 48): -10 kg
Change from baseline weight, Mean ([2]; 150 mg, Week 52): -10 kg
Change from baseline weight, Mean ([2]; 150 mg, Week 56 (treatment discontinued at week 52)): -9.6 kg
fraction of patients who had lost more than 5 kg [2, 5]: at least two thirds
fraction of patients who had lost more than 10 kg [2, 5]: Approximately one third
Nrf2 activity in blood cells (Nrf2): induces Nrf2 activity
mean weight loss ([3]; Day 28): 1.6 % of baseline weight
patients who had lost weight at Day 28 ([3]; Day 28, 25 mg once per day): 14 of 17
mean weight loss ([3]; Day 56): 3.7 % of baseline
median weight loss ([3]; Day 56, of baseline): 3.1%
patients who had lost weight at Day 56 ([3]; Day 56, 25 mg/day 28 days then 75 mg/day 28 days): 17 of 17
patients who lost more than 2% of their baseline weight ([3]; between Day −1 and Day 56): all but three
Weight D28 ([3]; individual CKD/Type 2 diabetes patients, Day 28, 25 mg once per day oral): 80.7 kg and 75.7 kg and 108.9 kg (2×) and 80.3 kg and 112.9 kg and 78.9 kg and 88.5 kg and 104.3 kg and 169.3 kg and 52.6 kg and 83.5 kg and 159.7 kg and 114 kg and 92.1 kg and 89.9 kg and 88.0 kg
Percent Change D28/D-1 (weight) ([3]; individual patients, Day 28 vs baseline, 25 mg/day): 0.0% (2×) and −0.7% and −2.4% (2×) and −1.6% and −3.5% and −1.2% and −8.5% and −1.4% and −0.1% and −12.8% and −0.5% and 0.3% and −0.3% and −1.0% and −3.0%
Weight D56 ([3]; individual patients, Day 56, 25 mg/day 28 days then escalated to 75 mg/day 28 days): 75.7 kg and 74.4 kg and 107.0 kg and 78.5 kg and 97.1 kg and 108.0 kg and 111.1 kg and 77.1 kg and 88 kg and 102.1 kg and 165.9 kg and 52.2 kg and 80.3 kg and 157.9 kg and 110.4 kg and 87.1 kg
Weight D56 ([3]; individual patients, Day 56, start dose 25 mg, escalated dose N/A): 91.6 kg and 87.4 kg
Percent Change D56/D-1 (weight) ([3]; individual patients, Day 56 vs baseline, 25 mg/day then escalated to 75 mg/day): −6.2% and −2.4% and −4.1% and −3.8% and −6.9% and −3.2% and −2.8% and −10.6% and −2.0% and −2.1% and −13.4% and −4.3% and −0.8% and −3.5% and −1.0%
Percent Change D56/D-1 (weight) ([3]; individual patients, Day 56 vs baseline, start dose 25 mg, escalated dose N/A): −1.5% and −5.7%
Weight D28, Mean ([3]; mean of all patients, Day 28): 99.4 kg
Percent Change D28/D-1 (weight), Mean ([3]; mean of all patients, Day 28 vs baseline): −1.6%
Weight D56, Mean ([3]; mean of all patients, Day 56): 97.3 kg
Percent Change D56/D-1 (weight), Mean ([3]; mean of all patients, Day 56 vs baseline): −3.7%
tolerability ([3]; patients with Type 2 diabetes and CKD, 56 days): very well tolerated

Source: patent US10105372B2, “Methods of treating obesity using antioxidant inflammation modulators” (REATA PHARMACEUTICALS, INC., priority 2010, dated 2018)
